Results reported in patent publication US10385021B2, “Carbamate compound and use thereof” (SUMITOMO CHEMICAL COMPANY, LIMITED, priority 2015, dated 2019).

Test system: wheat rust fungus (Puccinia recondita)
Assay: Test Example 2: wheat rust, foliar spray before inoculation, lesion area
Type: in vivo
Settings: 200 ppm foliar spray, wheat (Shirogane), inoculated 5 days after spraying, formulation per Formulation Example 6

SMILES: COC(=O)Nc1ccccc1COc1ccc(-c2ccccn2)cc1 [methyl N-(2-{[4-(pyridine-2-yl)phenoxy)methyl}phenyl)carbamate]
- area of the lesion relative to untreated wheat: ≥ 70%
